Experimental data published in patent publication US9745299B2, “Substituted tricyclic benzimidazoles as kinase inhibitors” (SELVITA SA, priority 2012, dated 2017).
Structures can show the parent of a compound that is named as a salt.

Tests used:
CDK8/CyclinC = molecular target: T1, CDK8/CyclinC (Homo sapiens, UniProt P49336); test: ADP-Glo Kinase Assay, CDK8/CyclinC; assay type: biochemical; conditions: read-out: % inhibition at 1 μM CDK8/CyclinC; note: ATP at apparent Km (53 µM)
T1 construct: purchased ProQinase, Freiburg, Germany
T1 sequence (P49336 whole entry): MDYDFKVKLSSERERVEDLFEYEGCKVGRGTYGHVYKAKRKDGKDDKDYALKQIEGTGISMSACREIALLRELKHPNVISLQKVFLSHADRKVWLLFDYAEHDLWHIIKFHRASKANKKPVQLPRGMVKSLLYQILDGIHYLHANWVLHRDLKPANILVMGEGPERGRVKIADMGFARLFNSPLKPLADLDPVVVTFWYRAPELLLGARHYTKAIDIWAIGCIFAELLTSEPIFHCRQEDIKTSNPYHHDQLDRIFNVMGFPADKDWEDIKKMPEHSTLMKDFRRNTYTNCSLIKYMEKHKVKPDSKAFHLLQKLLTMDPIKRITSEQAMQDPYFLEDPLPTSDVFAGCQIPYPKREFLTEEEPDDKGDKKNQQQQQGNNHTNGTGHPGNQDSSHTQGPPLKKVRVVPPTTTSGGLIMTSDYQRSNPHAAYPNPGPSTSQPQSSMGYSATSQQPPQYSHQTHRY
T1 sequence (P24863 whole entry partner): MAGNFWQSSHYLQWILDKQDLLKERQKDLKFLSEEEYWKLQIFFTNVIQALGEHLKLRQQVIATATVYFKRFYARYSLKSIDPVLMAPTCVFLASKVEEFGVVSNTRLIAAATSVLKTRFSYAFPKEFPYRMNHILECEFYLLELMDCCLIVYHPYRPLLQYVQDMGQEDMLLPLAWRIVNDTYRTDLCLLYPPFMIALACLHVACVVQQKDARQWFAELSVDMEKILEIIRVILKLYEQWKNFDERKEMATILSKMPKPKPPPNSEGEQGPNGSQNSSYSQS
Method: (§1) Testing of the compounds described in this invention was carried out using the ADP-Glo™ Kinase Assay from Promega Corporation (Madison, Wis., USA).
(§2) The ADP-Glo™ Kinase Assay is a luminescent ADP detection assay to measure kinase activity by quantifying the amount of ADP produced during a kinase reaction. The kinase assay is performed in kinase assay buffer (5 mM MOPS, pH 7.5, 5 mM MgCl2, 0.4 mM EDTA, 1.5 mM DTT). Test samples initially dissolved in DMSO at 10 mM were diluted with the assay buffer to 1000 nM. A 30 μL volume/well of a mixture of substrates containing ATP (final ATP concentration in each kinase assay was equal to its apparent ATP Km).
(§3) The assay was performed in two steps: first, after the kinase reaction, an equal volume of ADP-Glo™ Reagent was added to terminate the kinase reaction and deplete the remaining ATP. Second, the Kinase Detection Reagent was added to simultaneously convert ADP to ATP and allowed the newly synthesized ATP to be measured using a luciferase/luciferin reaction. The luminescent signal generated was proportional to the ADP concentration produced and was correlated with kinase activity.

CDK9/CyclinT = molecular target: T2, CDK9/CyclinT (Homo sapiens, UniProt P50750); test: ADP-Glo Kinase Assay, CDK9/CyclinT; assay type: biochemical; conditions: read-out: % inhibition at 1 μM CDK9/CyclinT; note: ATP at apparent Km (26 µM)
T2 construct: purchased Proqinase, Freiburg, Germany
T2 sequence (P50750 whole entry): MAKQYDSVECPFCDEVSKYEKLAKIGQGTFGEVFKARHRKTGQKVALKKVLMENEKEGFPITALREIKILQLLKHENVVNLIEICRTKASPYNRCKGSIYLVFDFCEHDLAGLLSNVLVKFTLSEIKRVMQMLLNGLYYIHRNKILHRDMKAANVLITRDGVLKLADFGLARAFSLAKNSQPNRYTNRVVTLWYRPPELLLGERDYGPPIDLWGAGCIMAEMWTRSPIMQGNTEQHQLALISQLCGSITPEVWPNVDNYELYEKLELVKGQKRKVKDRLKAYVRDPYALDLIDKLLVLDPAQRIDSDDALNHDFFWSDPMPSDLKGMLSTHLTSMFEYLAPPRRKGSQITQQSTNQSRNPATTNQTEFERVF
T2 sequence (O60563 whole entry partner): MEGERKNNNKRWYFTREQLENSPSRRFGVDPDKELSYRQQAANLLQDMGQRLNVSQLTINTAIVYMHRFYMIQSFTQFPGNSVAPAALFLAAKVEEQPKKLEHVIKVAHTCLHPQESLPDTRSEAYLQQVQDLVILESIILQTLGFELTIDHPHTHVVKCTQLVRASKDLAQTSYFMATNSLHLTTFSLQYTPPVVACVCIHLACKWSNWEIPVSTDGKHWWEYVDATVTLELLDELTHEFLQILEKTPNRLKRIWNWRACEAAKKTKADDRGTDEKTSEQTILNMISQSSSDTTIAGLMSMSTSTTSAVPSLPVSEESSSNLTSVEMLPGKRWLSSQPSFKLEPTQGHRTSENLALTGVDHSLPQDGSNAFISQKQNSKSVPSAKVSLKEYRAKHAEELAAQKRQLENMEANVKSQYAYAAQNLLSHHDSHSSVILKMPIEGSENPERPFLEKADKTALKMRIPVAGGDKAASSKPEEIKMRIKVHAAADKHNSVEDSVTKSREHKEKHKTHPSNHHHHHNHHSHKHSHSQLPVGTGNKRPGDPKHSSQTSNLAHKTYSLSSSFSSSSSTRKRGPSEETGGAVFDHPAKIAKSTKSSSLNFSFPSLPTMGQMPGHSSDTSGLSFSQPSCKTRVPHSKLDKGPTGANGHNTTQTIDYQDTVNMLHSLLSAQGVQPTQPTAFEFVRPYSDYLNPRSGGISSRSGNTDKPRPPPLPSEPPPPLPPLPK
Method: as §1, §2, §3

CDK2/CyclinE = molecular target: T3, CDK2/CyclinE (Homo sapiens, UniProt P24941); test: ADP-Glo Kinase Assay, CDK2/CyclinE; assay type: biochemical; conditions: read-out: % inhibition at 1 μM CDK2/CyclinE
T3 construct: purchased Millipore, Billerica, Mass., USA
Method: as §1, §2, §3

CDK5/p25 = molecular target: T4, CDK5/p25 (Homo sapiens, UniProt Q00535); test: ADP-Glo Kinase Assay, CDK5/p25; assay type: biochemical; conditions: read-out: % inhibition at 1 μM CDK5/p25; note: ATP at apparent Km (12 µM)
T4 construct: purchased Millipore, Billerica, Mass., USA
T4 sequence (Q00535 whole entry): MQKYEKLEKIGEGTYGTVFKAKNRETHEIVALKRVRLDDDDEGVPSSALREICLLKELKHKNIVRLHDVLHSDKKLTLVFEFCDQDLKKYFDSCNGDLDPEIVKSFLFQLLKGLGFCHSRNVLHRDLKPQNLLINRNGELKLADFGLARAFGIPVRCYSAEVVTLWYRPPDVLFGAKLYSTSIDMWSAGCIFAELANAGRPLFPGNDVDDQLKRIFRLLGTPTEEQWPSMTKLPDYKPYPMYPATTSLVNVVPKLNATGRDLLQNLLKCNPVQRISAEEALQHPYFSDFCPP
T4 sequence (Q15078 99-307 partner limits assumed): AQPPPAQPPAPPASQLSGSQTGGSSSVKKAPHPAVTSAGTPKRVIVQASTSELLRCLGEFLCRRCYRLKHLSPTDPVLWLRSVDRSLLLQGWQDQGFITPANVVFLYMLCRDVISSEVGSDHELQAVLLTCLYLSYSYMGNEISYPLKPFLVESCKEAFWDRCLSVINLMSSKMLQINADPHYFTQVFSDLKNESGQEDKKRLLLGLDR
Method: as §1, §2, §3

CDK7/CyclinH/MAT1 = molecular target: T5, CDK7/CyclinH/MAT1 (Homo sapiens, UniProt P50613); test: ADP-Glo Kinase Assay, CDK7/CyclinH/MAT1; assay type: biochemical; conditions: read-out: % inhibition at 1 μM CDK7/CyclinH/MAT1
T5 construct: purchased Millipore, Billerica, Mass., USA
T5 sequence (P50613 whole entry): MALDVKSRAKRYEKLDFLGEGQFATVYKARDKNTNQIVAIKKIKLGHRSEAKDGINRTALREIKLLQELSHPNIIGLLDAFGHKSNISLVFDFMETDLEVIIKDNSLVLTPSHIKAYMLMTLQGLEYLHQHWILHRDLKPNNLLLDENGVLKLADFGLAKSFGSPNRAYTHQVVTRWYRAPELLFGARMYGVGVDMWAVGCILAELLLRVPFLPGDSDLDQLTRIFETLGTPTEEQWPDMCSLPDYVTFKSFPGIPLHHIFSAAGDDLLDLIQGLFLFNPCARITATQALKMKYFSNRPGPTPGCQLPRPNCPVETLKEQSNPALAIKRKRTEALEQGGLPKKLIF
T5 sequence (P51946 whole entry partner): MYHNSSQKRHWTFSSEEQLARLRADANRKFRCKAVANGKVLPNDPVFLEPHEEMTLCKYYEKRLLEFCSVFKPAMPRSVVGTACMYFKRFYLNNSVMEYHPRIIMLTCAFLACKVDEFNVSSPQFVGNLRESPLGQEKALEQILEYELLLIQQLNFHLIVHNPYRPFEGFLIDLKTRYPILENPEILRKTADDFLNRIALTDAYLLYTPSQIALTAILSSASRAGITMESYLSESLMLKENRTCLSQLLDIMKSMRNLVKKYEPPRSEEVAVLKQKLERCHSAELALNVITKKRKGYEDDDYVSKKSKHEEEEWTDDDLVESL
T5 sequence (P51948 whole entry partner): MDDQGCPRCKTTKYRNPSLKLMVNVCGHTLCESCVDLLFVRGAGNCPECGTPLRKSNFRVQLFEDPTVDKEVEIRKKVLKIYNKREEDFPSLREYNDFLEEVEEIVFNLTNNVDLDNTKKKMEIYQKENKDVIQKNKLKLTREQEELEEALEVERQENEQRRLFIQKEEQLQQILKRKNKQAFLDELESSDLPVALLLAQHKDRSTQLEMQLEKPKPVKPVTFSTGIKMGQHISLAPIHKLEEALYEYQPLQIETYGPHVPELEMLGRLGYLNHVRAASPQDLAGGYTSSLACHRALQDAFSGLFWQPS
Method: as §1, §2, §3

HCT116 cells = test: MTS viability assay, HCT116; assay type: cell-based; conditions: Homo sapiens, HCT-116, HCT116, 72 hour incubation, read-out: IC50 [μM] HCT116 ED50
Source text: (§4) The viability of CDK8 expressing cells can be evaluated using a tetrazolium salt reduction cell-based assay. In viable cells this colorimetric assay can measure mitochondrial reduction of a tetrazolium component (MTS) into an […] formazan product. For MTS viability assay, human colon cancer cell lines were used (SW480 and HCT116 cell lines), containing elevated levels of CDK8 protein and highly dependent on its expression for proliferation [see, Firenstein et al. Nature 455 (25):547-551, (2008)]. These cell lines were used to determine the activity of the compounds provided herein to inhibit CDK8 in intact cells. Human tumor cell lines were obtained from ATCC (Rockville Md. USA). In each case, and by methods known to those practiced in the art of cell culture, vaiability was measured after 72 hour incubation with the compounds provided herein using a standard MTS protocol (CellTiter 96® AQueous Non-Radioactive Cell Proliferation Assay).
(§5) Briefly, cells were plated at 10,000-20,000 cells per well in DMEM medium supplemented with 10% fetal bovine serum. The compound plate was set up by aliquoting into column 1 of a 96-well plate, the negative control (DMSO), aliquoting into column 12 the positive control, and titrating the test compound in serial dilutions into columns 2-11. An aliquot from each well of the compound plate was transferred to the plated cells and then incubated at 37° C. in 5% CO2. 20 μL of MTS tetrazolium was added to each well of optical plate and the cells were incubated at 37° C. in 5% CO2 for 2 hours. The absorbance was measured at 490 nm using a microplate reader.

SW480 cells = test: MTS viability assay, SW480; assay type: cell-based; conditions: Homo sapiens, SW480, 72 hour incubation, read-out: IC50 [μM] SW-480 ED50
Source text: as §4, §5

A549 lung carcinoma = test: Cytotoxic effects, A549; assay type: cell-based, human
HepG2 hepatocarcinoma = test: Cytotoxic effects, HepG2; assay type: cell-based, human
[1] = tested on: MCF7 breast adenocarcinoma; test: Cytotoxic effects, MCF7; assay type: cell-based, human
[2] = tested on: MV4-11 acute myelocytic leukemia (AML); test: Cytotoxic effects, MV4-11; assay type: cell-based, human
Rec-1 B-cell lymphoma = test: Cytotoxic effects, Rec-1; assay type: cell-based, human
SK-MEL5 melanoma = test: Cytotoxic effects, SK-MEL5; assay type: cell-based, human
[3] = tested on: PC-3 adenocarcinoma prostate; test: Cytotoxic effects, PC-3; assay type: cell-based, human
HCT116 tumor = test: HCT116 xenograft tumor growth in NOD/SCID mice; assay type: in vivo; conditions: oral administration, 30 mg/kg
Method: The substituted Tricyclic Benzimidazoles of the present invention are useful as anti-cancer agents due to their ability to reduce tumor growth in vivo in mammals. Various well-accepted animal models exist for cancer. By way of example, antitumor activity can be evaluated in vivo in murine xenograft models. Briefly, female mice, NOD/SCID, 5-6 weeks old, were used for the study. On the 1st experimental day, 5*10^6 HCT116 cells were suspended in 0.1 ml 0.9% NaCl+Matrigel® (BD Biosciences) (1:1, v:v) and were injected subcutaneously, on the right side just above the groin. As the tumor growth was progressing, the tumor size was measured every day, and the tumor volume was computed from the formula: TV=(a*a*b)/2 in mm3, where a is the short axis in mm, and b is the long axis in mm. When the average tumor volume reached and exceeded 100 mm3, mice were randomized into uniform groups and subjected to the compound administrations. The administration of the compound was performed and continued according to the experimental schedule.
The tumor volume was monitored throughout the study and the tumor growth inhibition (TGI) was computed using the following formula: TGI [%]=((Av Norm TGC−Av Norm TGT)/Av Norm TGC)×100, where Av Norm TGC is the mean (average) normalized tumor growth of the control group, and Av Norm TGT is the mean (average) normalized tumor growth of the treated group. […]

inhibition at 1 µM (CDK8/CyclinC) | inhibition at 1 µM (CDK9/CyclinT) | inhibition at 1 µM (CDK2/CyclinE) | inhibition at 1 µM (CDK5/p25) | inhibition at 1 µM (CDK7/CyclinH/MAT1) | IC50 (HCT116 cells) | IC50 (SW480 cells) | SMILES | cytotoxic effects (A549 lung carcinoma) | cytotoxic effects (HepG2 hepatocarcinoma) | cytotoxic effects [1] | cytotoxic effects [2] | cytotoxic effects (Rec-1 B-cell lymphoma) | cytotoxic effects (SK-MEL5 melanoma) | cytotoxic effects [3] | HCT116 tumor growth (FIG. 1) (HCT116 tumor)
76% | 3% | 0% | 13% | 0% | 0.7 µM | 1.1 µM | Cc1c(Br)c(Br)c2c3c1nc(N1CCNCC1)n3CCC2 [Example 1K] | showed cytotoxic effects | showed cytotoxic effects | showed cytotoxic effects | showed cytotoxic effects | showed cytotoxic effects | showed cytotoxic effects | showed cytotoxic effects | Inhibition of HCT116 tumor growth
96% | 55% | 0% | 39% | 21% | 0.4 µM | 1 µM | Brc1c(Br)c2c3c(nc(N4CCNCC4)n3CCC2)c1Br [Example 6, 7,8,9-tribromo-2-(piperazin-1-yl)-5,6-dihydro-4H-imidazo[4,5,1-ij]quinoline maleate] | showed cytotoxic effects | showed cytotoxic effects | showed cytotoxic effects | showed cytotoxic effects | showed cytotoxic effects | showed cytotoxic effects | showed cytotoxic effects | Inhibition of HCT116 tumor growth
